Like-named read-outs stand apart in the source and are kept apart here.
Tests used:
NTCP [1] = target: T1, NTCP (Homo sapiens, UniProt Q14973); assay: Transport inhibition in NTCP-HEK293 cells
T1 sequence (Q14973 1-349): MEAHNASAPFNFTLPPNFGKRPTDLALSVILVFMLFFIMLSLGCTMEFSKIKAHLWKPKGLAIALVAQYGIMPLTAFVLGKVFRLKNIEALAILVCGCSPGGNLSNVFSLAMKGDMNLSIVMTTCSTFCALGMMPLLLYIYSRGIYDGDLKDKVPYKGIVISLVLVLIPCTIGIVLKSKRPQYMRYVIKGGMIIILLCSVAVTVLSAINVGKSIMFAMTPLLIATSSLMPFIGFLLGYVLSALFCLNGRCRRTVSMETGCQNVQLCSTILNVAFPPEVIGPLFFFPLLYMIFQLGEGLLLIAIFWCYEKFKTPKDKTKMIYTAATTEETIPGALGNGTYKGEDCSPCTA

SOAT [2] = target: T2, SOAT (Homo sapiens, UniProt Q3KNW5); assay: Transport inhibition in SOAT-HEK293 cells; type: cell-based; details: triterpenoid inhibitors, 10 min after 5 min preincubation
T2 construct: The full-length open reading frames of NTCP, ASBT, and SOAT were cloned; expressed in transfected cells; host or cells: Flp-In T-REX HEK293 (SOAT-HEK293), tetracycline-induced
T2 sequence (Q3KNW5 1-377): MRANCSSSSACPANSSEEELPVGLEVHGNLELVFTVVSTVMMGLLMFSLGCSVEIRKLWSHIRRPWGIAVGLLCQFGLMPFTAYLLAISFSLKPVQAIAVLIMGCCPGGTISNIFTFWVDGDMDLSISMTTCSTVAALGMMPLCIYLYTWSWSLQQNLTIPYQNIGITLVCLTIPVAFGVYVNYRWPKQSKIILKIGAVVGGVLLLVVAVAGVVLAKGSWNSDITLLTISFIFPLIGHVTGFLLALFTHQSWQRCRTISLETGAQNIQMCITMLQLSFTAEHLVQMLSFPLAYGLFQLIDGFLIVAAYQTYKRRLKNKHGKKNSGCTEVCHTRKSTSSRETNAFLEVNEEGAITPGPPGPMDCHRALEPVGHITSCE
Experimental: (§1) Cells were washed three times with PBS and were preincubated with the respective inhibitor in sodium transport buffer for 5 min at 37°C. Uptake was initiated by adding the respective radiolabeled substrate to the well and incubating for a fixed time as indicated in the figures at 37°C. Transport was terminated by removing the transport buffer and washing five-times with ice-cold PBS. Cell monolayers were lysed in 1 N NaOH with 0.1% SDS and the cell-associated radioactivity and protein content was determined as described above. For uptake inhibition with the myr-preS1 peptide the sodium transport buffer contained additionally MEM-amino acid solution (ThermoFisher) at 1:50 dilution.
(§2) All transport or inhibition graphs were generated with GraphPad Prism 6.0 (GraphPad). Determination of IC50 values was done by nonlinear regression analysis using the equation log (inhibitor) vs. response settings. If not stated otherwise in the legends all data represent means ± SD of at least triplicate determinations of representative experiments.
(§3) FIGURE 3 Inhibition of NTCP, ASBT, and SOAT with substrate inhibitors. Transport of [^3H]TC, [^3H]TLC, and [^3H]DHEAS was analyzed in NTCP-HEK293, ASBT-HEK293, and SOAT-HEK293 cells in the presence of the substrate inhibitors TC, TLC, and DHEAS at increasing concentrations ranging from 100 nM till 1000 µM. After 5 min of preincubation with the respective inhibitory compound, 200 nM [^3H]TLC, [^3H]TC or [^3H]DHEAS were added for additional 1 min and the cell lysates were analyzed by liquid scintillation counting. Unspecific uptake of HEK293-FlpIn cells was set to 0%. Carrier-specific uptake without inhibitor was set to 100%.
(§4) Transport of [^3H]TC, [^3H]TLC, and [^3H]DHEAS was analyzed in NTCP-HEK293, ASBT-HEK293, and SOAT-HEK293 cells in the presence of different supposed non-substrate triterpenoid inhibitors as indicated at increasing concentrations ranging from 100 nM till 1000 µM. After 5 min of preincubation with the respective inhibitory compound, 1 µM [^3H]TLC, [^3H]TC or [^3H]DHEAS were added for additional 10 min at 37°C and the cell lysates were analyzed by liquid scintillation counting. Experiments performed without inhibitor were set to 100%. Means of negative controls were subtracted to calculate net transport rates (expressed as percentage of control). Data represent means ± SD of quadruplicate determinations of representative experiments.

ASBT = target: T3, ASBT (Homo sapiens, UniProt Q12908); assay: Transport inhibition in ASBT-HEK293 cells; type: cell-based; details: triterpenoid inhibitors, 10 min after 5 min preincubation
T3 construct: The full-length open reading frames of NTCP, ASBT, and SOAT were cloned; expressed in transfected cells; host or cells: Flp-In T-REX HEK293 (ASBT-HEK293), tetracycline-induced
T3 sequence (Q12908 1-348): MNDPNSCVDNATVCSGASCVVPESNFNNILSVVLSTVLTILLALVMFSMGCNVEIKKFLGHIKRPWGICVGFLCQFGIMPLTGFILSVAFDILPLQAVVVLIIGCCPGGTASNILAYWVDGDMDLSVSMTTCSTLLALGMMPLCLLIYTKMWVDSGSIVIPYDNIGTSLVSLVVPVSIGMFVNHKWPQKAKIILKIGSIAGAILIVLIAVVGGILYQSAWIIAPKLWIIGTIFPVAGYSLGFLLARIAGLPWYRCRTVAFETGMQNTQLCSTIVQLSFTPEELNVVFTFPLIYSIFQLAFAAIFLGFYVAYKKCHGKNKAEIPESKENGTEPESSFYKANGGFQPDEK
Experimental: as §1, §2, §3, §4

HDV = details: in vitro; ref Kirstgen et al., 2020; cited from earlier work
NTCP [3] = target: T1, NTCP; assay: Transport kinetics (concentration-dependent uptake) in NTCP-HEK293 cells; type: cell-based; set-up: The full-length open reading frames of NTCP, ASBT, and SOAT were cloned; expressed in transfected cells; host or cells: Flp-In T-REX HEK293 (NTCP-HEK293), tetracycline-induced; details: uptake via NTCP, 1 min, 37°C
Experimental: (§5) Uptake experiments were initiated by replacing the preincubation buffer by 500 μL transport buffer containing the radiolabeled test compound and were performed at 37°C. Transport was terminated by removing the transport buffer and washing five-times with ice-cold PBS. Cell monolayers were lysed in 1 N NaOH with 0.1% SDS and the cell-associated radioactivity was determined by liquid scintillation counting.
FIGURE 2 NTCP, ASBT, and SOAT transport kinetics. Concentration-dependent uptake was analyzed in NTCP-HEK293, ASBT-HEK293, and SOAT-HEK293 cells for the indicated substrates at increasing substrate concentrations. Stably transfected HEK293 cells were pretreated with 1 μg/ml tetracycline to induce carrier expression. HEK293-FlpIn cells were used as control. Uptake was analyzed for 1 min at 37°C. Afterward, the medium was removed and each cell monolayer was washed and processed to determine the protein content and cell-associated radioactivity. Specific uptake was calculated by subtracting non-specific uptake of the HEK293-FlpIn control cells (open squares) from uptake into carrier-overexpressing HEK293 cells (filled squares) and is shown by broken lines. The values represent means ± SD of duplicate experiments, each with triplicate determinations (n = 6).

SOAT [4] = target: T2, SOAT; assay: Substrate screening: sodium-dependent uptake of radiolabeled compounds in SOAT-HEK293 cells; type: cell-based; details: radiolabeled steroid compounds 200 nM, 10 min, SOAT-HEK293, vs sodium-free control
Experimental: (§6) Stably SLC10 transporter transfected NTCP-HEK293, ASBT-HEK293, SOAT-HEK293 cells and the HEK293-FlpIn maternal cell line were seeded on 24-well plates (if not stated otherwise for individual assays). Well plates were coated with poly-D-lysine prior to seeding of 125,000 cells per well. Cells were grown with 1 ml of standard medium per well with or without tetracycline ([…]) for 72 h to induce carrier expression before respective assays were started. HEK293-FlpIn cells were cultivated with standard medium and served as control.
as §5
(§7) FIGURE 1 Comparative substrate screening for bile acids and sulfated steroids in NTCP-, ASBT-, and SOAT-HEK293 cells. Transport assays were performed with the indicated substrates in NTCP-HEK293, ABST-HEK293, SOAT-HEK293, and HEK293-FlpIn cells. Cells were washed and equilibrated with Na^+-containing transport buffer (filled bars) or with Na^+-free transport buffer (open bars) at 37°C. For uptake, cells were incubated with radiolabeled steroid compounds at a final concentration of 200 nM in Na^+-containing or Na^+-free transport buffer for 10 min. Radiolabeled bile acids were used at 1 µM concentrations and transport was analyzed over 30 min. HEK293-FlpIn cells served as additional controls. After the indicated time intervals, cells were washed with ice-cold PBS, lysed and subjected to liquid scintillation counting. […] 3-OH, trihydroxylated BAs; 2-OH, dihydroxylated BAs; 1-OH, monohydroxylated BAs.

SOAT [5] = target: T2, SOAT; set-up: method as in Geyer et al. (2007); details: uptake via SOAT, same SOAT-HEK293 cell line; ref Geyer et al. (2007); cited from earlier work
NTCP [6] = target: T1, NTCP; assay: Substrate screening: sodium-dependent uptake of radiolabeled compounds in NTCP-HEK293 cells; type: cell-based; set-up: The full-length open reading frames of NTCP, ASBT, and SOAT were cloned; expressed in transfected cells; host or cells: Flp-In T-REX HEK293 (NTCP-HEK293), tetracycline-induced; details: radiolabeled steroid compounds 200 nM, 10 min, NTCP-HEK293, vs sodium-free control
Experimental: as §6, §5, §7

[7] = NTCP IC50, substrate [3H]TC, triterpenoid inhibitors, 1 µM [3H]TC, 10 min after 5 min preincubation
[8] = NTCP IC50, substrate [3H]TLC, triterpenoid inhibitors, 1 µM [3H]TLC, 10 min after 5 min preincubation
[9] = 1 µM [3H]DHEAS, read-out: SOAT IC50, substrate [3H]DHEAS
[10] = 1 µM [3H]TLC, read-out: SOAT IC50, substrate [3H]TLC
[11] = 1 µM [3H]TC, read-out: ASBT IC50, substrate [3H]TC
[12] = 1 µM [3H]TLC, read-out: ASBT IC50, substrate [3H]TLC

| Compound | IC50 (NTCP [1]; [7]) | IC50 (NTCP [1]; [8]) | IC50 (SOAT [2]; [9]) | IC50 (SOAT [2]; [10]) | IC50 (ASBT; [11]) | IC50 (ASBT; [12]) | anti-HDV activity in vitro (HDV) | Apparent K m (NTCP [3]) | V max (NTCP [3]) | Transport activity grading SOAT (mean uptake) (SOAT [4]) | Apparent K m (SOAT [5]) | V max (SOAT [5]) | Transport activity grading NTCP (mean uptake) (NTCP [6]) | further results |
| --- | --- | --- | --- | --- | --- | --- | --- | --- | --- | --- | --- | --- | --- | --- |
| C=C(C)[C@@H]1CC[C@]2(CO)CC[C@]3(C)[C@H](CC[C@@H]4[C@@]5(C)CC[C@H](OC(=O)/C=C/c6ccc(O)c(O)c6)C(C)(C)[C@@H]5CC[C@]43C)[C@@H]12 [3-O-Caffeoyl betulin] | 129 µM | 2.1 µM | 301 µM | 37.8 µM | 499 µM | 99.7 µM |  |  |  |  |  |  |  | IC50 (NTCP [1]; NTCP IC50, substrate [3H]DHEAS, triterpenoid inhibitors, 1 µM [3H]DHEAS, 10 min after 5 min preincubation): 49.1 µM |
| C=C(C)[C@@H]1CC[C@]2(CO)CC[C@]3(C)[C@H](CC[C@@H]4[C@@]5(C)CC[C@H](O)C(C)(C)[C@@H]5CC[C@]43C)[C@@H]12 [Betulin] |  |  |  |  |  |  |  |  |  |  |  |  |  | IC50 (SOAT [2]; SOAT IC50, substrate [3H]DHEAS, 1 µM [3H]DHEAS): 912 µM; IC50 (SOAT [2]; SOAT IC50, substrate [3H]TLC, 1 µM [3H]TLC): 50.1 µM; IC50 (ASBT; ASBT IC50, substrate [3H]TC, 1 µM [3H]TC): > 1000 µM; IC50 (ASBT; ASBT IC50, substrate [3H]TLC, 1 µM [3H]TLC): 192 µM |
| C=C(C)[C@@H]1CC[C@]2(C(=O)O)CC[C@]3(C)[C@H](CC[C@@H]4[C@@]5(C)CC[C@H](O)C(C)(C)[C@@H]5CC[C@]43C)[C@@H]12 [Betulinic acid] |  |  | 1.2 µM | 9.5 µM | > 1000 µM | 193 µM | anti-HDV activity |  |  |  |  |  |  |  |
| C[C@]12CC[C@@H]3c4ccc(OS(=O)(=O)O)cc4CC[C@H]3[C@@H]1CCC2=O [E1S, Estrone-3-sulfate] |  |  |  |  |  |  |  | 57.6 ± 11.3 µM | 2367 ± 170.8 pmol/mg protein/min | + (Mean uptake “+” for values below 10) | 12.0 ± 2.3 µM | 585 ± 34 pmol/mg protein/min | ++ (“++” for values between 10 and 100) |  |
| C=C(C)[C@@H]1CC[C@]2(C)CC[C@]3(C)[C@H](CC[C@@H]4[C@@]5(C)CCC(=O)C(C)(C)[C@@H]5CC[C@]43C)[C@@H]12 [Lupenone] | 240 µM | 11.8 µM | 665 µM | 122 µM | > 1000 µM | > 1000 µM | anti-HDV activity |  |  |  |  |  |  | IC50 (NTCP [1]; NTCP IC50, substrate [3H]DHEAS): > 1000 µM |
| Pregnenolone sulfate [PREGS] |  |  |  |  |  |  |  | 8.8 ± 2.1 µM | 1036 ± 69.1 pmol/mg protein/min | +++ (“+++” for values above 100 pmol/mg protein/10 min for sulfated steroid hormones) | 11.3 ± 3.0 µM | 2168 ± 134 pmol/mg protein/min | +++ (“+++” for values above 100 pmol/mg protein/10 min for sulfated steroid hormones) |  |

Source: paper PMC8165160, “Substrate Specificities and Inhibition Pattern of the Solute Carrier Family 10 Members NTCP, ASBT and SOAT” (Frontiers in Molecular Biosciences, 2021)
